What all share (assay): biochemical
Common to all, as to settings: read-out: % enzyme activity, 1 μM; Run 1, Run 2

In one assay the target is CAMK2b (Homo sapiens, UniProt Q13554).
Another assay deals with T1, EPHB3 (Homo sapiens, UniProt P54753).
T1 sequence (P54753 34-998): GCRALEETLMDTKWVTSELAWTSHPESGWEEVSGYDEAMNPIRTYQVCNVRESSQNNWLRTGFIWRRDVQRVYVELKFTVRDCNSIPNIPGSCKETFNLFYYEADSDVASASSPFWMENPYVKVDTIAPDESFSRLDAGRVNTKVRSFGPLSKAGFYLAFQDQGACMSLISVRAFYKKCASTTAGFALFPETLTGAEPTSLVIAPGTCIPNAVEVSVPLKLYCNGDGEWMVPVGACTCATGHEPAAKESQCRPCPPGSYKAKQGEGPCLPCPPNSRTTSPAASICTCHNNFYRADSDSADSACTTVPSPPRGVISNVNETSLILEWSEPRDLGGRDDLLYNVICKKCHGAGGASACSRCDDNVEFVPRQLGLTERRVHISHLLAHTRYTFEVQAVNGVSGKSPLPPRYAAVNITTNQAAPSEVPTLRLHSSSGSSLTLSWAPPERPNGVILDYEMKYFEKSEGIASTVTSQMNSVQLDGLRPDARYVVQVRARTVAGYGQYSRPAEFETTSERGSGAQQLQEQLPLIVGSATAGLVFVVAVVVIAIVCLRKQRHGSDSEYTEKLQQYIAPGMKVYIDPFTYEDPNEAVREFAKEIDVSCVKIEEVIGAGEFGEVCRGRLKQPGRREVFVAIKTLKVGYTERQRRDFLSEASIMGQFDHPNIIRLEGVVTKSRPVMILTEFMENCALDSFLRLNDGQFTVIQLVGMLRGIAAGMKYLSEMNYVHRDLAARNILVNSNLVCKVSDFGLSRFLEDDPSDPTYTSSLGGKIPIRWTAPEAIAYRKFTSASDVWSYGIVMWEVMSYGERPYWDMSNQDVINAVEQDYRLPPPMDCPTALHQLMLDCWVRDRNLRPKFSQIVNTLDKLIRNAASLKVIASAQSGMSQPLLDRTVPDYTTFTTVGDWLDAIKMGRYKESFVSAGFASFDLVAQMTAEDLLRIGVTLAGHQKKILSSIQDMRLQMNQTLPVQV

A further assay has as its target CDK9/cyclin T1 (Homo sapiens, UniProt P50750).
Another assay addresses T2, NEK3 (Homo sapiens, UniProt P51956).
T2 sequence (P51956 1-506): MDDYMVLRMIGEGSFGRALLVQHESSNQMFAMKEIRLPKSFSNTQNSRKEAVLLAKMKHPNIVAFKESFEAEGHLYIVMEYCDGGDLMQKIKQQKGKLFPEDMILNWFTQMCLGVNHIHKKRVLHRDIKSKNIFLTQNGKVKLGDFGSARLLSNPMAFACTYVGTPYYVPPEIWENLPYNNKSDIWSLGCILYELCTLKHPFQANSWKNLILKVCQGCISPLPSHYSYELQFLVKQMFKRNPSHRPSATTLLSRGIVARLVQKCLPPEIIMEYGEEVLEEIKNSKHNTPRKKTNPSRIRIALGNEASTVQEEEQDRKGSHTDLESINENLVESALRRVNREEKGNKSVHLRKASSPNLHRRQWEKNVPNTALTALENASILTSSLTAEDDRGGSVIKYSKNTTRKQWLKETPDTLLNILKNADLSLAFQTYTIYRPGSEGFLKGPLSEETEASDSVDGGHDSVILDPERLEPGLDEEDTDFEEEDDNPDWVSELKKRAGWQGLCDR

The next assay concerns the target T3, PLK4/SAK (Homo sapiens, UniProt O00444).
T3 sequence (O00444 1-970): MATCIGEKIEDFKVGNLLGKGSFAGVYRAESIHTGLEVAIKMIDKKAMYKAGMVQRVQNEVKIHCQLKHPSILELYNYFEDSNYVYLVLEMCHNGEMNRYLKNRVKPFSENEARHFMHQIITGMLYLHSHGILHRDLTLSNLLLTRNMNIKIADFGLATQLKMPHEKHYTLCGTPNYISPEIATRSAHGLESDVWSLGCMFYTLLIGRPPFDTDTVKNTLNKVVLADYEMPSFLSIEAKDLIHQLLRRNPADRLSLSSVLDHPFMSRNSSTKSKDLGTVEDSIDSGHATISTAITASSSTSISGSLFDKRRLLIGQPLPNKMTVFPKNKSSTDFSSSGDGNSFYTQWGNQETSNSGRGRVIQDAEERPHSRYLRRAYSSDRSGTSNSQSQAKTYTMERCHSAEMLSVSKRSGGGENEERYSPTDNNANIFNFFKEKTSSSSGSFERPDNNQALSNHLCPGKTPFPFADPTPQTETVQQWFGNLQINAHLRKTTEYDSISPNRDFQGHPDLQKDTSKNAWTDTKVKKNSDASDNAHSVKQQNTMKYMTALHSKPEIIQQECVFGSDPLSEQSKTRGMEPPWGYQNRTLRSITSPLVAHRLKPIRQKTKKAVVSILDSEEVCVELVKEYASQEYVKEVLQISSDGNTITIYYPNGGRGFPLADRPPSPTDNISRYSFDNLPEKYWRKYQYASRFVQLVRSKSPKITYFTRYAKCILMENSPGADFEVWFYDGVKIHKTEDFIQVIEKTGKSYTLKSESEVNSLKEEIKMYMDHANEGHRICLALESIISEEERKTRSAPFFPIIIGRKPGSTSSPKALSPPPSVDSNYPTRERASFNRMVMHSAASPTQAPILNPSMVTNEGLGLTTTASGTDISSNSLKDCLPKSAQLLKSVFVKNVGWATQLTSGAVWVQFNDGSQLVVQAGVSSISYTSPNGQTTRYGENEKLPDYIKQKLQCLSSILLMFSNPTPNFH

CAMK2b, sequence (Q13554 whole entry): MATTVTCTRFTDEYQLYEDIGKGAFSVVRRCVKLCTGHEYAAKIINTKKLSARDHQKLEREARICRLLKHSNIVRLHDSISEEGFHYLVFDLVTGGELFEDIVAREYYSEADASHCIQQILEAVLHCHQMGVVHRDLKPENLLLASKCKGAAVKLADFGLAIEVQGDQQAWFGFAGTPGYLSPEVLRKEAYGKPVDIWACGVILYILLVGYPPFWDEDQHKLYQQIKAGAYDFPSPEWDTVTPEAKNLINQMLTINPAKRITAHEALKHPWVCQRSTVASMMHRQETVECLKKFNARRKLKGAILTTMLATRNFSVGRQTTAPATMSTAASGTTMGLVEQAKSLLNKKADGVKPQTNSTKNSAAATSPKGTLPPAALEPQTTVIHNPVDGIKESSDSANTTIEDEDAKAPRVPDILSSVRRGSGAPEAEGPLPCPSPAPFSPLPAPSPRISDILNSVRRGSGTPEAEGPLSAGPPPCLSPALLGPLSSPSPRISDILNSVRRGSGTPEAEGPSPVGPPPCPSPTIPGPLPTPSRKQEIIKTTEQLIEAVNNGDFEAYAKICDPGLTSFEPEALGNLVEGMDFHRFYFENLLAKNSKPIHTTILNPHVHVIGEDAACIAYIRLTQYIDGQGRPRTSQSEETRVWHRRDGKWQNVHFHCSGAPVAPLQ
CDK9/cyclin T1, sequence (P50750 whole entry): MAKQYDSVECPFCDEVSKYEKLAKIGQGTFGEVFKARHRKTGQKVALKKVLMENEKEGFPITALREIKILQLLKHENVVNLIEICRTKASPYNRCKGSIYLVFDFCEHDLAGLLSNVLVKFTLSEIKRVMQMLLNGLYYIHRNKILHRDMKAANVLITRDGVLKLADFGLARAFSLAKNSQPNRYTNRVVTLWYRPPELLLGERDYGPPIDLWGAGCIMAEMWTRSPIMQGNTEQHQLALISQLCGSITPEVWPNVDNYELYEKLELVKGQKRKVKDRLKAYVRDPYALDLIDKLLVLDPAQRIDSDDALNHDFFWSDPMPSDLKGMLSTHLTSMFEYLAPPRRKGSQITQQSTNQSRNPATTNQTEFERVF
CDK9/cyclin T1, sequence (O60563 whole entry partner): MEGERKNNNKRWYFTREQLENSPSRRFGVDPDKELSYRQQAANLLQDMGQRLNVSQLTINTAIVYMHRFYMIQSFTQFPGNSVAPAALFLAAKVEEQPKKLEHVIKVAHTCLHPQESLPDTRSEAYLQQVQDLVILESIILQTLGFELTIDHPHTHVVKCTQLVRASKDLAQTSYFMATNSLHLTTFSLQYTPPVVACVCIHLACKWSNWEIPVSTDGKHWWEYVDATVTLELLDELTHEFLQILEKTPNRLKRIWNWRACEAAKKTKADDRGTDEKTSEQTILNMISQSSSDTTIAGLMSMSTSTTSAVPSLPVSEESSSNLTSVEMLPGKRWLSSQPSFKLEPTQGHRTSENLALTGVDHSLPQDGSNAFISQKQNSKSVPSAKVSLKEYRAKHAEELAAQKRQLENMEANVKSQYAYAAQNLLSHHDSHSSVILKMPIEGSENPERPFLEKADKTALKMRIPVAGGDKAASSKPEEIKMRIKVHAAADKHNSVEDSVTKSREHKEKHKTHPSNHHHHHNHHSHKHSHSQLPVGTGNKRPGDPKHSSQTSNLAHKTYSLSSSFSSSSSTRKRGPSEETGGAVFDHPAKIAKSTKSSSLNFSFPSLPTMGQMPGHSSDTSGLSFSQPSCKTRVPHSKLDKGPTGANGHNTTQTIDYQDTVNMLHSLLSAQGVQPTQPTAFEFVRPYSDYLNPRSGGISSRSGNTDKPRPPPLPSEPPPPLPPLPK

Regarding `COc1cc(-c2cncc(-c3ccc(N4C[C@@H](C)N(C)[C@@H](C)C4)cc3)c2C)cc(F)c1C(N)=O` [Compound 26c, 2-Fluoro-6-methoxy-4-(4-methyl-5-(4-((3R,5S)-3,4,5-trimethylpiperazin-1-yl)phenyl)pyridin-3-yl)benzamide], the remaining activity at 1 µM turned out to be 92.8% on CAMK2b; 98.9% on EPHB3; 97.1% at CDK9/cyclin T1; 96.2% on NEK3; 98.8% on PLK4/SAK.

In the case of `COc1cc(-c2cncc(-c3ccc(N4CCN(C)CC4)cc3)c2C)cc(F)c1C(N)=O` [Compound 26a, 2-Fluoro-6-methoxy-4-(4-methyl-5-(4-(4-methylpiperazin-1-yl)phenyl)pyridin-3-yl)benzamide], the remaining activity at 1 µM is 83.9% on CAMK2b; 95.5% on EPHB3; 90.8% on CDK9/cyclin T1; 88.3% on NEK3; 94.1% on PLK4/SAK.

For the origin of these results see paper PMC8213057, “Targeting ALK2: An Open Science Approach to Developing Therapeutics for the Treatment of Diffuse Intrinsic Pontine Glioma” (Journal of Medicinal Chemistry, 2020).
